53 compounds from PubChem BioAssay AID1996 can be followed below.

What is called kinetic solubility is the concentration staying in solution when a stock, usually in DMSO, is diluted into the medium.

The structures appear in SMILES notation. In brackets after ≈: the same amount, converted by molar mass.

For the data set the following is noted: buffer; pH 7.4; 200.0 µM.
In turn, `CCOC(=O)C1=C(C)OC(N)=C(C#N)C1c1ccc(C)s1` (stereo not drawn) came in with a kinetic solubility of 13.2 µg/mL (≈ 43.4 µM).
The result for `CCn1cnc2cc([N+](=O)[O-])ccc21` reads above 28.7 µg/mL; that for `CCOC(=O)N1CCN(C(=O)c2cc3cc(F)ccc3[nH]2)CC1`, 40.5 µg/mL (≈ 127 µM); that for `Cc1cc(C)c(NC(=O)CCCSc2nnc(N)s2)c(C)c1`, above 50.5 µg/mL.
To `CCC(Oc1ccccc1OC)C(=O)N1CC(=O)Nc2ccccc21` (stereo not drawn) belongs 43 µg/mL (≈ 126 µM).
The result for `COc1ccc(NC(=O)CN(C)CC(=O)NC2CCC(C)CC2)cc1` (stereo not drawn) reads above 52.1 µg/mL.
In the case of `COc1ccc(OC)c(NC(=O)c2nc3ccccc3s2)c1`, the kinetic solubility was below 0.3 µg/mL.
To `Cl.c1ccc(CNCc2ccco2)cc1` belongs 33.5 µg/mL.
`Cc1cccn2c(=O)c(C=O)c(N3CCSCC3)nc12` returned a kinetic solubility of 16.2 µg/mL (≈ 56 µM).
The result for `Cc1noc(C)c1COc1ccc2ccc(=O)oc2c1` reads 11.5 µg/mL (≈ 42.4 µM); that for `O=C(CCC(=O)c1cccs1)NCc1ccncc1`, above 41.2 µg/mL.
The result for `CCN(CC)c1nc2c(c(=O)[nH]c(=O)n2C)n1Cc1ccccc1` reads 30.5 µg/mL (≈ 93.2 µM); that for `COc1cc(/C=C/C(=O)OCC(=O)NCCC2=CCCCC2)cc(OC)c1OC`, 33.3 µg/mL (≈ 82.5 µM); that for `O=C(NC(=O)c1ccccc1)Nc1ccc(-c2cnco2)cc1`, below 0.2 µg/mL.
As for `O=C(c1ccc([N+](=O)[O-])cc1)N1CCN(C(=O)C2CCCCC2)CC1`, the solubility (kinetic) was above 51.8 µg/mL.
To `CCOC(=O)CNC(=O)N1CCCC(N(C)CCc2ccccc2)C1` (stereo not drawn) belongs above 52.1 µg/mL; to `Cc1cc(-c2onc(C)c2C(=O)O)no1`, above 31.2 µg/mL; to `Cc1nn(-c2cccc(C(=O)O)c2)c(C)c1[N+](=O)[O-]`, above 39.2 µg/mL.
The result for `O=C(CSC(=S)N1CCOCC1)c1cc2ccccc2oc1=O` reads 7.4 µg/mL (≈ 21.2 µM); that for `Cc1ccc(-c2noc(CCCC(=O)NCC3CCCO3)n2)cc1` (stereo not drawn), 42.2 µg/mL (≈ 128 µM); that for `C/C(Cc1ccccc1)=N\NC(=O)CNC(=O)c1ccccc1O`, above 48.8 µg/mL.
To `COc1nc(-c2ccccc2)ncc1S(=O)(=O)c1ccccc1` belongs below 0.3 µg/mL; to `CC(C)C12CN3CC(C(C)C)(CN(C1)C3(C)C)C2=O`, 32 µg/mL (≈ 121 µM).
In the case of `COc1cn(-c2ccccc2)nc1C(=O)NCc1ccccc1`, the solubility (kinetic) is above 46.1 µg/mL.
The compound `Cc1ccc(C(=O)Nc2nccs2)s1` registered a kinetic solubility of 9.6 µg/mL (≈ 42.8 µM).
To `CC1CCCCC1NC(=O)CN1C(=O)COc2ccccc21` (stereo not drawn) belongs 8.2 µg/mL (≈ 27.1 µM); to `COc1ccccc1CNC(=O)COC(=O)c1ccncc1`, above 45 µg/mL; to `O=C(NC(=S)NC1CCCCC1)c1ccccc1`, 8.5 µg/mL (≈ 32.4 µM).
The result for `COc1cccc(NC2=NCCCS2)c1` reads above 33.3 µg/mL.
`O=C(Nc1cccc(NC(=O)C2C3CC4OC(=O)C2C4C3)c1)c1ccccc1` (stereo not drawn) registered a kinetic solubility of 46.7 µg/mL (≈ 124 µM).
The result for `Cc1ccc(SCc2ccc(C(=O)N3CCCC3)cc2)cc1` reads 31 µg/mL (≈ 99.5 µM).
The result for `CCc1cccc(C)c1NC(=O)COC(=O)CC1CCCC1` reads 15.7 µg/mL (≈ 51.7 µM).
The result for `N#C/C(=C\c1cccs1)C(=O)c1ccccc1Cl` reads above 41.1 µg/mL.
`O=C(/C=C/NCc1cccnc1)c1ccc(Br)cc1`: the solubility (kinetic) was above 47.6 µg/mL.
The result for `Cc1occc1C(=O)/C(C#N)=C/c1ccc(O)c(Br)c1` reads above 49.8 µg/mL; that for `CCOc1ccc(Br)cc1CN(CC)CC.Cl`, above 48.4 µg/mL.
The result for `NS(=O)(=O)c1cccc(NC(=O)COC(=O)c2cc([N+](=O)[O-])ccc2N2CCCC2)c1` reads 9.7 µg/mL (≈ 21.6 µM); that for `O=C(COc1cccnc1[N+](=O)[O-])c1c[nH]c2ccccc12`, 4.3 µg/mL (≈ 14.5 µM).
With `CC1C(=O)Nc2ccccc2N1C(=O)c1ccc(F)cc1F` (stereo not drawn), the solubility (kinetic) was above 45.3 µg/mL.
To `Cc1ccoc1C(=O)N1CCN(C(=O)c2occc2C)CC1` belongs above 45.3 µg/mL; to `C=CCNC(=S)Nc1ccc2cn[nH]c2c1`, above 34.8 µg/mL; to `COc1ccccc1NC(=O)COC(=O)c1oc2ccccc2c1C`, 6 µg/mL (≈ 17.7 µM).
`COc1ccc(NC(=S)NCc2cccs2)cc1OC` registered a kinetic solubility of 19.6 µg/mL (≈ 63.5 µM).
The result for `CCN(CC)c1ccc(CNc2nc3ccccc3n2C(C)C)cc1` reads 0.3 µg/mL (≈ 0.892 µM); that for `CN(Cc1ccccc1Cl)C(=O)CNC(=O)C12CC3CC(CC(C3)C1)C2`, above 56.2 µg/mL.
As to `O=C(Nc1ccc(C(=O)N2CCCCC2)cc1)c1cccs1`, the solubility (kinetic) stood at 35 µg/mL (≈ 111 µM).
The result for `O=[N+]([O-])c1cccnc1N1CCCNCC1` reads 30.4 µg/mL (≈ 137 µM).
To `Cc1cc(C)nc(SSc2nc(C)cc(C)n2)n1` belongs 40.6 µg/mL (≈ 146 µM).
The result for `CC1(C)Cc2nc(NC3CCCCC3)c(C#N)cc2CO1` reads 1.7 µg/mL (≈ 5.96 µM); that for `CC(=O)c1ccc(NC(=O)C(C)OC(=O)/C=C/c2ccco2)cc1` (stereo not drawn), 21.7 µg/mL (≈ 66.3 µM).
In turn, `CCN(CC)S(=O)(=O)c1ccc(NC(=O)c2cnccn2)cc1` gave a solubility (kinetic) of 7.8 µg/mL (≈ 23.3 µM).
The result for `CCOC(=O)c1c(NC(=O)NC(C)(C)C)sc2c1CCN(C)C2` reads 14.9 µg/mL (≈ 43.9 µM); that for `CCC(C)c1ccc(NC(=O)NCc2cccnc2)cc1` (stereo not drawn), 41 µg/mL (≈ 145 µM).
